From PubChem BioAssay (NCI) come the findings set out here.

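1) Cells in 96-well plates. 2) Compound, 48 h, 5 concentrations. 3) Linear interpolation between surrounding doses. 4) Unreached endpoint = highest concentration. At the GI50, growth is halved. TGI: concentration producing complete growth inhibition.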 Some results are limits rather than exact numbers.

Assay in all cases: DTP human tumour cell line panel, 48 h
Assay [1] concerns SK-MEL-2 melanoma.
For assay [2], the system named is UO-31 renal.
Assay [3] deals with RXF 393 renal.
For assay [4], the system named is CAKI-1 renal.
In assay [5] the test system is SNB-19 CNS.
In assay [6] the test system is CCRF-CEM leukemia.
Assay [7] deals with OVCAR-4 ovarian.
The subject of assay [8] is TK-10 renal.
In assay [9] the test system is A498 renal.
For assay [10], the system named is HCT-15 colon.

On to `COc1cc2c(=O)n(CC3CCCCC3)c3c4cc[nH]c4ncc3c2cc1OC`, for which the GI50 was 8.69 µM in assay [1]; 0.848 µM in assay [2]; 0.407 µM in assay [3]; 1.19 µM in assay [4]; 5.16 µM in assay [5]; 2.54 µM in assay [6]. For the same compound, the GI50 was 1.1 µM in assay [7], 4.66 µM in assay [8], 0.086 µM in [9] and 1.69 µM in assay [10]. The TGI in [1] was 41.7 µM; in assay [2], 9.56 µM; in [3], 5.55 µM; in [4], 7.39 µM; in [5], 19.5 µM; in assay [6], above 50 µM. The TGI in [7] is 10.3 µM; in assay [8], 18.9 µM; in [9], 3.06 µM; in [10], above 50 µM.
Consider `CCOC(=O)CC(C)C1(C=O)CCCCC1=O` (stereo not given), for which the TGI in assay [1], in [2], in assay [3], in [4], in assay [5] and in [6] was above 100 µM each time. The TGI in assay [7], in assay [8], in assay [9] and in assay [10] was above 100 µM in each case.
In the case of `NC(=O)c1nc(-c2ccc(Cl)c(Cl)c2)nc2ccccc12`, the TGI is above 100 µM in assay [1]; above 100 µM in assay [2]; above 22.2 µM in assay [3]; above 100 µM in assay [4]; above 100 µM in assay [5]; above 100 µM in assay [6]. The TGI in assay [7], in assay [8], in assay [9] and in assay [10] was above 100 µM in each case.
`CNC(=O)c1cc(-c2ccc(F)cc2)cc(-c2ccc(S(=O)(=O)N3CCCC3)cc2)c1N`: the GI50 is above 25 µM in [1]; 11.3 µM in assay [2]; 14.7 µM in [3]; 12.6 µM in assay [4]; above 25 µM in assay [5]; above 20.7 µM in [6]. Besides, the GI50 is 16.1 µM in assay [7], above 25 µM in assay [8], 5.25 µM in assay [9] and 9.68 µM in assay [10]. The TGI in [1], in assay [2], in assay [3], in assay [4], in assay [5] and in assay [6] was above 25 µM each time. The TGI in assay [7], in assay [8], in assay [9] and in [10] was above 25 µM each time.
In the case of `Cn1cc(-c2csc(-c3cn(C(=O)OC(C)(C)C)c4ccccc34)n2)c2cccnc21`, the GI50 in assay [1] is 13.8 µM; in [2] it was 3.46 µM; in assay [3] it was 2.26 µM; in assay [4], 3.06 µM; in assay [5], 10.4 µM; in assay [6], 3.89 µM. For the same compound, the GI50 is 6.73 µM in [7], 15.9 µM in [8], 3.86 µM in assay [9] and 6.35 µM in assay [10]. In addition, the TGI in [1] amounted to 36.3 µM; in assay [2], 21.3 µM; in assay [3], 9.29 µM; in assay [4], 24.8 µM; in assay [5] it was 30.1 µM; in [6] it was 67.6 µM. For the same compound, the TGI worked out at 47 µM in [7], 42.2 µM in assay [8], 14.4 µM in [9] and 37.7 µM in assay [10].
`COC(=O)C#CC(N)=O`: the TGI in assay [1] is above 100 µM; in assay [2], above 100 µM; in assay [3] it was above 100 µM; in [4] it was above 67.1 µM; in assay [5], above 100 µM; in assay [6] it was 36.4 µM. Moreover, the TGI in assay [7] is above 100 µM; in assay [8], 99.1 µM; in [9], above 100 µM; in [10] it was above 100 µM.
On to `CS(=O)(=O)CCNCc1ccoc1-c1ccc2ncnc(Nc3ccc(OCc4ccccc4)cc3)c2c1`, for which the GI50 was above 25 µM in [1]; 2.26 µM in assay [2]; 7.25 µM in [3]; 1.78 µM in assay [4]; above 25 µM in assay [5]; 17.7 µM in assay [6]. In addition, the GI50 in [7] is above 25 µM; in assay [8], 1.38 µM; in assay [9] it was 20.5 µM; in assay [10] it was above 25 µM. Moreover, the total growth inhibition concentration (TGI) in assay [1], in assay [2], in [3], in assay [4], in [5] and in assay [6] was above 25 µM each time. Further, the TGI in assay [7], in assay [8], in assay [9] and in assay [10] was above 25 µM throughout.
For the compound `CC[C@@H](C(=O)[C@@H](C)[C@@H](O)[C@H](C)[C@@H]1O[C@@H]([C@@H](CC)C(=O)O)CC[C@@H]1C)[C@H]1O[C@]2(C=C[C@@H](O)[C@]3(CC[C@@](C)([C@H]4CC[C@](O)(CC)[C@H](C)O4)O3)O2)[C@H](C)C[C@@H]1C`, the GI50 was 0.279 µM in assay [1]; 1.05 µM in assay [2]; 0.114 µM in [3]; 1.61 µM in assay [4]; 0.689 µM in assay [5]; 0.255 µM in assay [6]. The GI50 was 1.12 µM in [7], 0.942 µM in [8], 0.0567 µM in assay [9] and 0.912 µM in [10]. In addition, the TGI is 2.48 µM in assay [1]; 25.5 µM in assay [2]; 2.64 µM in assay [3]; 44.2 µM in [4]; 5.97 µM in assay [5]; 12.7 µM in assay [6]. For the same compound, the total growth inhibition concentration (TGI) was 34 µM in assay [7], 17.8 µM in assay [8], 0.821 µM in [9] and above 100 µM in [10].

As usually defined, the GI50 is the concentration giving 50% growth inhibition. In general, TGI refers to the concentration giving total growth inhibition. A low value points to greater sensitivity of the cells.
